Test results as given in patent US12139492B2 (Endotarget Inc., priority 2021, dated 2024).

Tests used:
Assay type in all cases: cell-based
BTK = BTK (Homo sapiens, UniProt Q06187); assay: BTK degradation, DC50 and Dmax of Table 1 (cell line not given); parameters: endogenous in cells; conditions: for DC50: concentration giving 50% reduction of BTK expression level
Mino cells = assay: Antiproliferative effect, MTS cell viability assay, Mino cells; conditions: Homo sapiens, MINO, Mino mantle cell lymphoma cells; read-out: IC50 (anti-proliferation) Mino cells
Procedure, shortened: (§1)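 Steps: seed B-cell lymphoma line; add compound at 0, 0.001, 0.01, 0.1, 1 or 10 μM; incubate 72 h; add MTS and read reduced tetrazolium (formazan) absorbance at 490 nm.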

JeKo-1 cells = assay: Antiproliferative effect, MTS cell viability assay, JeKo-1 cells; conditions: Homo sapiens; JeKo-1 mantle cell lymphoma cells; read-out: IC50 (anti-proliferation) JeKO-1 cells
Procedure, shortened: as §1

Sequence of BTK (Q06187 whole entry): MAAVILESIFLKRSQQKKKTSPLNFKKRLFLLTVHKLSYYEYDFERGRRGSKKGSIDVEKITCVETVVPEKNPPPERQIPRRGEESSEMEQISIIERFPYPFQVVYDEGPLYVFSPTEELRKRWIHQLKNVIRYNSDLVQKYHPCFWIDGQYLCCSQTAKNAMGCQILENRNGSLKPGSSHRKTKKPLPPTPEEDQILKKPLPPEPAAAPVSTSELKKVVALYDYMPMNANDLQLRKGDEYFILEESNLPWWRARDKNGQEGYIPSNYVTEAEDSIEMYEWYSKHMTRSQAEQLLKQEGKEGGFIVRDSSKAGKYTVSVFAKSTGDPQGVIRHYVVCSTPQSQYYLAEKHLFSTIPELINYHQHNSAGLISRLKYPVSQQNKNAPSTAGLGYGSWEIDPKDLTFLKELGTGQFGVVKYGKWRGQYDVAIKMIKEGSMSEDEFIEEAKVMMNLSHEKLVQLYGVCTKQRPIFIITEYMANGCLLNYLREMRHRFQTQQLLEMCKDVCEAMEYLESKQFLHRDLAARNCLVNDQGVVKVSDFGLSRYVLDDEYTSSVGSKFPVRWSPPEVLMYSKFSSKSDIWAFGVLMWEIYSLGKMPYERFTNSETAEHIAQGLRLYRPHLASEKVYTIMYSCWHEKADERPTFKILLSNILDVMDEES

| Dmax (BTK) [%] | DC50 (BTK) [µM] | Structure (SMILES) | IC50 (Mino cells) [µM] | IC50 (JeKo-1 cells) [µM] |
| --- | --- | --- | --- | --- |
| > 90 | < 0.01 | Nc1ncnc2c1c(-c1ccc(Oc3ccccc3)cc1)nn2C1CCN(C(=O)N2CCC(CN3CCC(c4ccc5c(c4)CN(C4CCC(=O)NC4=O)C5=O)CC3)CC2)CC1 (centres unmarked) [Compound 92, 3-(5-(1-((1-(4-(4-amino-3-(4-phenoxyphenyl)-1H-pyrazolo[3,4-d]pyrimidin-1-yl)piperidine-1-carbonyl)piperidin-4-yl)methyl)piperidin-4-yl)-1-oxoisoindolin-2-yl)piperidine-2,6-dione] | < 1 | 1 to 10 |
| > 90 | 0.01 to 0.05 | Nc1ncnc2c1c(-c1ccc(Oc3ccccc3)cc1)nn2C1CCN(C(=O)N2CCN(CCC3CCN(c4ccc5c(c4)C(=O)N(C4CCC(=O)NC4=O)C5=O)CC3)CC2)CC1 (centres unmarked) [Compound 97, 5-(4-(2-(4-(4-(4-amino-3-(4-phenoxyphenyl)-1H-pyrazolo[3,4-d]pyrimidin-1-yl)piperidine-1-carbonyl)piperazin-1-yl)ethyl)piperidin-1-yl)-2-(2,6-dioxopiperidin-3-yl)isoindoline-1,3-dione] | 1 to 10 | 1 to 10 |
| > 90 | 0.01 to 0.05 | Nc1ncnc2c1c(-c1ccc(Oc3ccccc3)cc1)nn2C1CCN(CC2CCN(C(=O)N3CCC(CCN4CCN(c5ccc6c(c5)CN(C5CCC(=O)NC5=O)C6=O)CC4)CC3)CC2)CC1 (centres unmarked) [Compound 44, 3-(5-(4-(2-(1-(4-((4-(4-amino-3-(4-phenoxyphenyl)-1H-pyrazolo[3,4-d]pyrimidin-1-yl)piperidin-1-yl)methyl)piperidine-1-carbonyl)piperidin-4-yl)ethyl)piperazin-1-yl)-1-oxoisoindolin-2-yl)piperidine-2,6-dione] | 1 to 10 | 1 to 10 |
| > 75 | 0.01 to 0.05 | Nc1ncnc2c1c(-c1ccc(Oc3ccccc3)cc1)nn2[C@@H]1CCCN(CC2CCN(CCCN3CCC(c4ccc5c(c4)C(=O)N(C4CCC(=O)NC4=O)C5=O)CC3)CC2)C1 (stereo partly drawn) [Compound 139, 5-(1-(3-(4-(((R)-3-(4-amino-3-(4-phenoxyphenyl)-1H-pyrazolo[3,4-d]pyrimidin-1-yl)piperidin-1-yl)methyl)piperidin-1-yl)propyl)piperidin-4-yl)-2-(2,6-dioxopiperidin-3-yl)isoindoline-1,3-dione] | > 10 | > 10 |
| > 90 | 0.01 to 0.05 | Nc1ncnc2c1c(-c1ccc(Oc3ccccc3)cc1)nn2[C@@H]1CCCN(C2CCN(CC3CCN(c4ccc5c(c4)CN(C4CCC(=O)NC4=O)C5=O)CC3)CC2)C1 (stereo partly drawn) [Compound 144, 3-(5-(4-(((R)-3-(4-amino-3-(4-phenoxyphenyl)-1H-pyrazolo[3,4-d]pyrimidin-1-yl)-[1,4′-bipiperidin]-1′-yl)methyl)piperidin-1-yl)-1-oxoisoindolin-2-yl)piperidine-2,6-dione] | 1 to 10 | > 10 |
| > 90 | 0.01 to 0.05 | Nc1ncnc2c1c(-c1ccc(Oc3ccccc3)cc1)nn2C1CCN(C(=O)N2CCN(CCN3CCC(c4ccc5c(c4)CN(C4CCC(=O)NC4=O)C5=O)CC3)CC2)CC1 (centres unmarked) [Compound 100, 3-(5-(1-(2-(4-(4-(4-amino-3-(4-phenoxyphenyl)-1H-pyrazolo[3,4-d]pyrimidin-1-yl)piperidine-1-carbonyl)piperazin-1-yl)ethyl)piperidin-4-yl)-1-oxoisoindolin-2-yl)piperidine-2,6-dione] | 1 to 10 | 1 to 10 |

The next lines start with the compound.

| Structure (SMILES) | Dmax (BTK) [%] | DC50 (BTK) [µM] | IC50 (Mino cells) [µM] | IC50 (JeKo-1 cells) [µM] |
| --- | --- | --- | --- | --- |
| Nc1ncnc2c1c(-c1ccc(Oc3ccccc3)cc1)nn2C1CCN(C(=O)N2CCC(CCN3CCN(c4ccc5c(c4)CN(C4CCC(=O)NC4=O)C5=O)CC3)CC2)CC1 (centres unmarked) [Compound 94, 3-(5-(4-(2-(1-(4-(4-amino-3-(4-phenoxyphenyl)-1H-pyrazolo[3,4-d]pyrimidin-1-yl)piperidine-1-carbonyl)piperidin-4-yl)ethyl)piperazin-1-yl)-1-oxoisoindolin-2-yl)piperidine-2,6-dione] | > 90 | 0.01 to 0.05 | < 1 | 1 to 10 |
| Nc1ncnc2c1c(-c1ccc(Oc3ccccc3)cc1)nn2C1CCCN(CCOCCOCCN2CCN(c3ccc4c(c3)CN(C3CCC(=O)NC3=O)C4=O)CC2)C1 (centres unmarked) [Compound 4, 3-(5-(4-(2-(2-(2-(3-(4-amino-3-(4-phenoxyphenyl)-1H-pyrazolo[3,4-d]pyrimidin-1-yl)piperidin-1-yl)ethoxy)ethoxy)ethyl)piperazin-1-yl)-1-oxoisoindolin-2-yl)piperidine-2,6-dione] | > 90 | < 0.01 | 1 to 10 | 1 to 10 |
| Nc1ncnc2c1c(-c1ccc(Oc3ccccc3)cc1)nn2C1CCCN(CCOCCOCCC2CCN(c3ccc4c(c3)CN(C3CCC(=O)NC3=O)C4=O)CC2)C1 (centres unmarked) [Compound 22, 3-(5-(4-(2-(2-(2-(3-(4-amino-3-(4-phenoxyphenyl)-1H-pyrazolo[3,4-d]pyrimidin-1-yl)piperidin-1-yl)ethoxy)ethoxy)ethyl)piperidin-1-yl)-1-oxoisoindolin-2-yl)piperidine-2,6-dione] | > 90 | < 0.01 | < 1 | 1 to 10 |
| Nc1ncnc2c1c(-c1ccc(Oc3ccccc3)cc1)nn2C1CCN(C(=O)N2CCC(c3ccc4c(c3)C(=O)N(C3CCC(=O)NC3=O)C4=O)CC2)CC1 (centres unmarked) [Compound 77, 5-(1-(4-(4-amino-3-(4-phenoxyphenyl)-1H-pyrazolo[3,4-d]pyrimidin-1-yl)piperidine-1-carbonyl)piperidin-4-yl)-2-(2,6-dioxopiperidin-3-yl)isoindoline-1,3-dione] | > 50 | > 0.05 | > 10 | > 10 |
| Nc1ncnc2c1c(-c1ccc(Oc3ccccc3)cc1)nn2[C@@H]1CCCN(C(=O)N2CCN(CCN3CCN(c4ccc5c(c4)C(=O)N(C4CCC(=O)NC4=O)C5=O)CC3)CC2)C1 (stereo partly drawn) [Compound 65, 5-(4-(2-(4-((R)-3-(4-amino-3-(4-phenoxyphenyl)-1H-pyrazolo[3,4-d]pyrimidin-1-yl)piperidine-1-carbonyl)piperazin-1-yl)ethyl)piperazin-1-yl)-2-(2,6-dioxopiperidin-3-yl)isoindoline-1,3-dione] | > 90 | < 0.01 | 1 to 10 | 1 to 10 |
| Nc1ncnc2c1c(-c1ccc(Oc3ccccc3)cc1)nn2C1CCN(C(=O)N2CCC(CC3CCN(c4ccc5c(c4)CN(C4CCC(=O)NC4=O)C5=O)CC3)CC2)CC1 (centres unmarked) [Compound 90, 3-(5-(4-((1-(4-(4-amino-3-(4-phenoxyphenyl)-1H-pyrazolo[3,4-d]pyrimidin-1-yl)piperidine-1-carbonyl)piperidin-4-yl)methyl)piperidin-1-yl)-1-oxoisoindolin-2-yl)piperidine-2,6-dione] | > 90 | < 0.01 | 1 to 10 | 1 to 10 |
| Nc1ncnc2c1c(-c1ccc(Oc3ccccc3)cc1)nn2[C@@H]1CCCN(CC2CCN(C(=O)N3CCC(CN4CCN(c5ccc6c(c5)CN(C5CCC(=O)NC5=O)C6=O)CC4)CC3)CC2)C1 (stereo partly drawn) [Compound 32, 3-(5-(4-((1-(4-(((R)-3-(4-amino-3-(4-phenoxyphenyl)-1H-pyrazolo[3,4-d]pyrimidin-1-yl)piperidin-1-yl)methyl)piperidine-1-carbonyl)piperidin-4-yl)methyl)piperazin-1-yl)-1-oxoisoindolin-2-yl)piperidine-2,6-dione] | > 90 | 0.01 to 0.05 | 1 to 10 | 1 to 10 |
| Nc1ncnc2c1c(-c1ccc(Oc3ccccc3)cc1)nn2[C@@H]1CCCN(C(=O)N2CCC(CN3CCN(c4ccc5c(c4)CN(C4CCC(=O)NC4=O)C5=O)CC3)CC2)C1 (stereo partly drawn) [Compound 56, 3-(5-(4-((1-((R)-3-(4-amino-3-(4-phenoxyphenyl)-1H-pyrazolo[3,4-d]pyrimidin-1-yl)piperidine-1-carbonyl)piperidin-4-yl)methyl)piperazin-1-yl)-1-oxoisoindolin-2-yl)piperidine-2,6-dione] | > 90 | < 0.01 | < 1 | < 1 |
| Nc1ncnc2c1c(-c1ccc(Oc3ccccc3)cc1)nn2C1CCN(C(=O)N2CCN(CCN3CCN(c4ccc5c(c4)CN(C4CCC(=O)NC4=O)C5=O)CC3)CC2)CC1 (centres unmarked) [Compound 96, 3-(5-(4-(2-(4-(4-(4-amino-3-(4-phenoxyphenyl)-1H-pyrazolo[3,4-d]pyrimidin-1-yl)piperidine-1-carbonyl)piperazin-1-yl)ethyl)piperazin-1-yl)-1-oxoisoindolin-2-yl)piperidine-2,6-dione] | > 90 | 0.01 to 0.05 | 1 to 10 | 1 to 10 |
| Nc1ncnc2c1c(-c1ccc(Oc3ccccc3)cc1)nn2C1CCN(C(=O)N2CCN(CCCN3CCC(c4ccc5c(c4)CN(C4CCC(=O)NC4=O)C5=O)CC3)CC2)CC1 (centres unmarked) [Compound 124, 3-(5-(1-(3-(4-(4-(4-amino-3-(4-phenoxyphenyl)-1H-pyrazolo[3,4-d]pyrimidin-1-yl)piperidine-1-carbonyl)piperazin-1-yl)propyl)piperidin-4-yl)-1-oxoisoindolin-2-yl)piperidine-2,6-dione] | > 90 | > 0.05 | > 10 | > 10 |
| Nc1ncnc2c1c(-c1ccc(Oc3ccccc3)cc1)nn2C1CCN(C(=O)N2CCC(CCCC3CCN(c4ccc5c(c4)C(=O)N(C4CCC(=O)NC4=O)C5=O)CC3)CC2)CC1 (centres unmarked) [Compound 125, 5-(4-(3-(1-(4-(4-amino-3-(4-phenoxyphenyl)-1H-pyrazolo[3,4-d]pyrimidin-1-yl)piperidine-1-carbonyl)piperidin-4-yl)propyl)piperidin-1-yl)-2-(2,6-dioxopiperidin-3-yl)isoindoline-1,3-dione] | > 90 | > 0.05 | > 10 | 1 to 10 |
